Results published in patent US6911470B1, “Polyoxometalate compounds as antiviral agents” (priority 1988, dated 2005).
Where “and” joins values, the source holds several entries; their conditions need not be identical. Identical values can stand only once. Like-named read-outs stand apart in the source and are kept apart here.

What was measured:
[1] = system: human granulocyte-macrophage precursor cells; type: cell-based
Text: Preparation of Cells. Human bone marrow cells were collected by aspiration from the posterior iliac crest of normal healthy volunteers, treated with heparin and the mononuclear population separated by Ficoll-Hypaque gradient centrifugation. Cells were washed twice in Hanks balanced salt solution, counted with a hemacytometer and their viability was >98% as assessed by trypan blue exclusion.
Assay of Colony-Forming Unit Granulocyte-Macrophage (CFU-GM) for Drug Cytotoxicity. The culture assay for CFU-GM was performed using a bilayer soft-agar method as recently described (Sommadossi et al, Antimicrob. Agents Chemother. 31, 452-454, 1987). McCoy 5A nutrient medium supplemented with 15% dialyzed fetal bovine serum (heat inactivated at 56° C. for 30 min.) (Gibco Laboratories, Grand Island, N.Y.) was used in all experiments. This medium was completely lacking in thymidine and uridine. Cells were cloned in 0.3% agar in the presence of increasing concentrations of the modulating compound or in medium alone (control). After 14 days of incubation at 37° C. in a humidified atmosphere of 5% CO2 in air, colonies (≧50 cells) were counted using an inverted microscope.
The toxicities of a variety of polyoxometalates with respect to human bone marrow cells (human granulocyte-macrophage precursor cells) were assessed.

HIV-1 (strain LAV-1) = assay: microbe, parasite or virus in culture; type: cell-based
Description: Cells. Human peripheral blood mononuclear cells (PBMC) from healthy HIV-1 seronegative and hepatitis B virus seronegative donors were isolated by Ficoll-Hypaque discontinuous gradient centrifugation at 1,000×g for 30 minutes, washed twice in phosphate-buffered saline (pH 7.2; PBS), and pelleted at 300×g for 10 minutes. Before infection, the cells were stimulated by phytohemagglutinin (PHA) at a concentration of 6 μg/ml for three days in RPMI 1640 medium supplemented with 15% heat-inactivated fetal calf serum, 1.5 mM L-glutamine, penicillin (100 U/ml), streptomycin (100 μg/ml), and 4mM sodium bicarbonate buffer.
Viruses. HIV-1 (strain LAV-1) was obtained from Dr. P. Feorino (Centers for Disease Control, Atlanta, Ga.). The virus was propagated in human PBMC using RPMI 1640 medium, as described previously (McDougal et al, J. Immun. Meth. 76, 171-183, 1985) without PHA and supplemented with 7% v/v interleukin-2 (Advanced Biotechnologies, Silver Spring, Md.), 7 μg/ml DEAE-dextran (Pharmacia, Uppsala, Sweden), and 370 U/ml anti-human leucocyte (alpha) interferon (ICN, Lisle, Ill.). Virus obtained from cell-free culture supernatant was titrated and stored in aliquots at −80° C. until use.
Inhibition of virus replication in human PBMC. Uninfected PHA-stimulated human PBMC were uniformly distributed among 25 cm^2 flasks to give a 5 ml suspension containing about 2×10^6 cells/ml. Suitable dilutions of virus were added to infect the cultures. The mean reverse transcriptase (RT) activity of the inocula was 50,000 decompositions per min/ml corresponding to about 100 TCID50, as determined by Groopman et al. (Groopman et al, AIDS Res. Human Retro. 3, 71-85, 1987. The drugs at twice their final concentrations in 5 ml of RPMI 1640 medium, supplemented as described above, were added to the cultures. Uninfected and untreated PBMC at equivalent cell densities were grown in parallel as controls. The cultures were maintained in a humidified 5% CO2-95% air incubator at 37° C. for six days after infection, at which point all cultures were sampled for supernatant reverse transcriptase (RT) activity.
RT activity assay. Six ml supernatant from each culture was clarified from cells at 300×g for 10 minutes. Virus particles were pelleted from 5 ml samples at 40,000 rpm for 30 minutes using a Beckman 70.1 Ti rotor and suspended in 200 μl of virus disrupting buffer (50 mM Tris-Cl, pH 7.8, 800 mM NaCl, 20% glycerol, 0.5 mM phenylmethyl sulfonyl fluoride, and 0.5% Triton X-100).
The RT assay was performed in 96-well microtiter plates, as described by Spira et al. (Spira et al, J. Clin. Microbiol. 22, 97-99, 1987). The reaction mixture, which contained 50 mM Tris-Cl pH 7.8, 9 mM MgCl2, 5 mM dithiothreitol (DTT), 4.7 μg/ml (rA)n. (dT)12-18, 140 μM dATP, and 0.22 μM [^3H]TTP, specific activity 78.0 Ci/mmol, equivalent to 17,300 cpm/pmol; NEN Research Products, Boston, Mass., was added to each well. The sample (20 μl) was added to the reaction mixture which was then incubated at 37° C. for 2 hours. The reaction was terminated by the addition of 100 μl 10% trichloroacetic acid (TCA) containing 0.45 mM sodium pyrophosphate. The acid-insoluble nucleic acids which precipitated were collected on glass filters using a Skatron semi-automatic harvester. The filters were washed with 5% TCA and 70% ethanol, dried, and placed in scintillation vials. Four ml of scintillation fluid (Econofluor, NEN Research Products, Boston, Mass.) were added and the amount of radioactivity in each sample was determined using a Packard Tri-Carb liquid scintillation analyzer (model 2,000CA). The results were expressed in dpm/ml of original clarified supernatant.
Median-effect method. Dose-effect relationships were analyzed by the median-effect equation (Chou et al, Adv. Enz. Regul. 22, 27-55, 1984).

HSV-1 = assay: Plaque reduction assay for herpes simplex viruses in Vero cells; type: cell-based, herpes simplex virus type 1; details: Table 2, read-out: EC-50 HSV-1
Description: Cell culture assays for heroes simplex viruses. Mycoplasma-free Vero cells, obtained from Flow Laboratory (McLean, Va.), were used for the plaque assays. The methodologies for the plaque reduction and cytotoxicity assays have been previously described (Schinazi et al, Antimicrob. Agents Chemother. 22, 499-507, 1982). Median-effect method. Dose-effect relationships were analyzed by the median-effect equation (Chou et al, Adv. Enz. Regul. 22, 27-55, 1984). The slope (m) and median effective and inhibitory concentration (EC50 and IC50) values were obtained by using a computer program developed by Chou and Chou (Chou et al, Elsevier-Biosoft, Elsevier Science Publishers, Cambridge, U.K., 1985).

[2] = Table 2, several values per cell, some in brackets, read-out: EC-50 HIV-1 (LAV-1)
[3] = Table 1, read-out: EC50 Anti-HIV-1 Activity in Human PBM Cells

How did the “toxicity to human bone marrow cells (order of toxicity, FIG. 6)” value (“toxicity to human bone marrow cells” for short) ([1]; human, 14 days) turn out when `Cc1cn([C@H]2C[C@H](N=[N+]=[N-])[C@@H](CO)O2)c(=O)[nH]c1=O` [Formula 22, 3′-azido-3′-deoxythymidine, reference compound] was run?
The value was “BT and NH4ST<AZT and ST<HPA-23”.

What about the EC50 (HIV-1 (strain LAV-1); Human immunodeficiency virus 1, PBMC, Table 1, read-out: EC50 Anti-HIV-1 Activity in Human PBM Cells) of the same compound?
The EC50 was 4 nM.

And the EC50 (HIV-1 (strain LAV-1); Human immunodeficiency virus 1, PBMC, Table 2, several values per cell, some in brackets, read-out: EC-50 HIV-1 (LAV-1))?
The EC50 was 3.08 nM.

What about the EC50 (HSV-1; Human alphaherpesvirus 1, Vero) of the same compound?
The EC50 was > 100000 nM.

“(ArgH^+)m(H^+)4-mST, where m=1-4 [(ARGH^+)nH^+(4−n)ST]” was tested. Which EC50 (HIV-1 (strain LAV-1); [2]) did it give?
The EC50 was 1030 nM and 770 nM.

And the EC50 (HSV-1)?
Its EC50 is 180 nM.

Which EC50 (HIV-1 (strain LAV-1); [3]) does the source give for (Me4N)4W10O32 [Formula 19] here?
Its EC50 is 3100 nM.

And the EC50 (HIV-1 (strain LAV-1); [2])?
Its EC50 is 3050 nM and 3300 nM.

And the EC50 (HSV-1)?
Its EC50 is 5980 nM.

For (NH4)4W10O32 [Formula 18], which EC50 (HIV-1 (strain LAV-1); [3]) is on record?
The EC50 was 1800 nM.

What about the EC50 (HSV-1) of the same compound?
The EC50 was > 10000 nM.

(NH4)6P2W18O62 [Formula 14] was tested. Which EC50 (HIV-1 (strain LAV-1); [3]) did it give?
Its EC50 is 910 nM.

What about the EC50 (HIV-1 (strain LAV-1); [2]) of the same compound?
The EC50 was 910 nM.

And the EC50 (HSV-1)?
Its EC50 is 330 nM.

With H3PW12O40 [Formula 2] as the compound, how does the EC50 (HIV-1 (strain LAV-1); [3]) read?
Its EC50 is 14000 nM.

And the EC50 (HIV-1 (strain LAV-1); [2])?
The EC50 was 14000 nM.

And the EC50 (HSV-1)?
Its EC50 is 12700 nM.

Which “toxicity to human bone marrow cells” value [1] does the source give for H4SiW12O40 [Formula 3] here?
The value was “BT and NH4ST<AZT and ST<HPA-23”.

And the EC50 (HIV-1 (strain LAV-1); [3])?
The EC50 was 120 nM.

And the EC50 (HIV-1 (strain LAV-1); Table 2, several values per cell, some in brackets, listed as α and β H4ST, read-out: EC-50 HIV-1 (LAV-1))?
Its EC50 is 120 nM and 210 nM.

And the “therapeutic index in human PBM cells” value (HIV-1 (strain LAV-1); from Table 1 EC50 and IC50)?
The value was “highest”.

And the EC50 (HSV-1)?
Its EC50 is 1600 nM.

Which “toxicity to human bone marrow cells” value [1] does the source give for H5BW12O40 [Formula 4] here?
Its value is “NH4BT (least toxic)<BT and NH4ST<AZT and ST”.

And the EC50 (HIV-1 (strain LAV-1); [3])?
Its EC50 is 460 nM.

And the EC50 (HSV-1)?
Its EC50 is < 1000 nM.

H6P2W18O62 [Formula 13] was tested. Which EC50 (HIV-1 (strain LAV-1); [3]) did it give?
The EC50 was 520 nM.

What about the EC50 (HIV-1 (strain LAV-1); [2]) of the same compound?
Its EC50 is 520 nM.

And the EC50 (HSV-1)?
Its EC50 is 160 nM.
